Reference: article PMC8691714 (Cancer Research Communications, 2021)
pIC50: −log10 of the molar value.

Columns and labels:
OCT3 = target: T1, OCT3 (Homo sapiens, UniProt O75751); assay: In vitro transport assay, cells overexpressing OCT3; type: cell-based; conditions: OCT3 vs empty vector; 15 minutes
T1 construct: expressed in transfected cells; compared with empty vector control
T1 sequence (O75751 1-556): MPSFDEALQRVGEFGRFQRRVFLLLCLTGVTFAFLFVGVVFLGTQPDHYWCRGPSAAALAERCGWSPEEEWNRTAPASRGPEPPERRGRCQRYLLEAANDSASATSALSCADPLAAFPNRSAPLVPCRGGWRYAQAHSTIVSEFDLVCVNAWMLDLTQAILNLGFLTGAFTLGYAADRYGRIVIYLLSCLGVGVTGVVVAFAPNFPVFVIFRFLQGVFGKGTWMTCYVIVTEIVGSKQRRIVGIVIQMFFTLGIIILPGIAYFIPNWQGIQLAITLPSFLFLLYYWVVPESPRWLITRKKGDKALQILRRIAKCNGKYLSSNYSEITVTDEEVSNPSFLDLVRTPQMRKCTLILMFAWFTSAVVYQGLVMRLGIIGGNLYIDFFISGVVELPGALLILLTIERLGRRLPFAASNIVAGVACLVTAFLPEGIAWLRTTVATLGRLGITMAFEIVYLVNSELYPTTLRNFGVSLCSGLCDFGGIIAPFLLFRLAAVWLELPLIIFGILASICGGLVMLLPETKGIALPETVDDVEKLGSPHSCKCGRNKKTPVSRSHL

TMD8 cells = assay: MTT viability assay, TMD8 cells, 72 hours; type: cell-based, human; conditions: Homo sapiens, TMD8, 72 h, MTT
Description: Cell viability was assessed after 72 hours of incubation.

Caco-2 = tested on: Caco-2; set-up: method as in earlier work; conditions: PBPK model parameter; ref [17, 18] and Drugbank; cited from earlier work
[1] = cited from earlier work
[2] = Cardiac distribution of ibrutinib in mice (heart-to-plasma ratio); conditions: female wild-type mice; six hours after ibrutinib 10 mg/kg orally; cobicistat 30 mg/kg pretreatment vs vehicle; P < 0.01
[3] = set-up: method as in earlier work; conditions: PBPK model parameter, ref [17, 18] and Drugbank, cited from earlier work

Structure (SMILES): C=CC(=O)N1CCC[C@@H](n2nc(-c3ccc(Oc4ccccc4)cc3)c3c(N)ncnc32)C1 [Ibrutinib]
- uptake of ibrutinib by transporter-overexpressing cells (OCT3): not substantially facilitated
- pIC50 (TMD8 cells; None (Fig. 2A, ketoconazole panel)): 8.85
- pIC50 (TMD8 cells; None (Fig. 2B, cobicistat panel)): 8.85
- pIC50 (TMD8 cells; with 0.1 μmol/L cobi): 8.89
- pIC50 (TMD8 cells; with 0.1 μmol/L keto): 8.96
- pIC50 (TMD8 cells; with 1 μmol/L cobi): 8.96
- pIC50 (TMD8 cells; with 1 μmol/L keto): 9.00
- pIC50 (TMD8 cells; with 10 μmol/L cobi): 9.09
- pIC50 (TMD8 cells; with 10 μmol/L keto): 9.06
- Caco-2 (Caco-2): 32.6 ×10⁻⁶ cm/s
- experimentally observed increase in ibrutinib exposure ([1]; itraconazole-ibrutinib interaction, ref [8]): 10 fold
- increase in ibrutinib exposure predicted from a pharmacokinetic model ([1]; itraconazole-ibrutinib interaction, ref [23]): 21 fold
- oral bioavailability ([1]; patients, ref [4, 5]): < 3%
- heart levels of ibrutinib normalized to plasma levels [2]: substantially lower levels

Structure (SMILES): Nc1ncnc2c1c(-c1ccc(Oc3ccccc3)cc1)nn2[C@@H]1CCCN(C(=O)C(O)CO)C1 (stereo partly shown) [PCI-45227]
- Clpo ([3]; oral clearance): Clpo (L/h) : 433
- Vss ([3]; steady-state volume of distribution): 9.0 L/kg
